The term solubility denotes the dissolved amount per volume that the medium holds. Low readings indicate little dissolved substance, high ones much dissolved substance.

The nature of data set [1]: Solubilization by fixing the micelle structure: drug concentration in the clear neutral liquid. The settings on record: for clear liquid obtained: no alkali; for clear liquid obtained / concentration of AP-1067 in clear neutral liquid containing solubilized drug: 45° C.; for concentration of AP-1067 in clear neutral liquid containing solubilized drug: pH adjusted to neutral. The format is physicochemical. Here is the method: About 10 mg of AP-1067 was dispersed into 1 mL of water. An aqueous solution of sodium hydroxide was added thereto to adjust the solution to pH=13 or above. The suspension was heated up to 45° C. to obtain a clear alkali aqueous liquid containing solubilized AP-1067 wherein a micelle of AP-1067 was formed. (AP-1067 concentration: about 10 mg/mL)
40 mg of sodium dodecyl sulfate (SDS) was added to the alkali aqueous liquid to fix the formed micelle structure. Then, an aqueous solution of hydrochloric acid was added dropwise thereto and its pH was adjusted to neutral to obtain a clear neutral liquid containing slubilized AP-1067 wherein the micelle of AP-1067 existed in the fixed manner. The concentration of AP-1067 at that time was 9.1 mg/mL.
About 10 mg of AP-1067 was dispersed into 1 mL of water. An aqueous solution of sodium hydroxide was added thereto to adjust the solution to pH=13 or above. The suspension was heated up to 45° C. to obtain a clear alkali aqueous solution of AP-1067 wherein a micelle of AP-1067 was formed. (AP-1067 concentration: about 10 mg/mL)
100 mg of Polysorbate 80 was added to the alkali aqueous solution to fix the formed micelle structure. Then, an aqueous solution of hydrochloric acid was added dropwise thereto and its pH was adjusted to neutral to obtain a clear neutral liquid containing solubilized AP-1067 wherein the micelle of AP-1067 existed in the fixed manner. The concentration of AP-1067 at that time was 10.3 mg/mL.
10 mg of AP-1067 and 40 mg of SDS were dispersed into 1 mL of water. The suspension was heated up to 45° C., and the ultrasonic treatment was conducted for 1.5 hours.
10 mg of AP-1067 and 100 mg of Polysorbate 80 were dispersed into 1 mL of water. The suspension was heated up to 45° C., and the ultrasonic treatment was conducted for 1.5 hours.
10 mg of APC0576 and 83 mg of cetylpyridinium chloride monohydrate were dispersed and dissolved into 1 mL of an aqueous solution of 1.5 mol/L hydrochloric acid. The suspension was heated up to 50° C., and the ultrasonic treatment was conducted thereto to obtain a clear acidic aqueous liquid containing solubilized APC0576 wherein a micelle of the poorly-soluble drug APC0576 existed in the fixed manner. (APC0576 concentration: about 10 mg/mL)
An aqueous solution of 10 mol/L sodium hydroxide was added dropwise to the acidic aqueous liquid to adjust its pH to nearly neutral to obtain about 7 mg/mL of a clear liquid containing solubilized APC0576 wherein the micelle of APC0576 existed in the fixed manner. (see FIG. 3)
10 mg of APC0576 and 85 mg of cetylpyridinium chloride monohydrate were dissolved into 1 mL of water. The suspension was heated up to 50° C., and the ultrasonic treatment was conducted for 1.5 hours. […] (see FIG. 3)

Data set [2] is described as follows: Solubility in water at room temperature.

Converted amounts (≈) assume the structure as drawn.

For `Cl.NS(=O)(=O)c1ccc(/C=C/CN2CCC(=C3c4ccccc4C=Cc4ccccc43)CC2)cc1` [AP-1067, (4-(5H-dibenzo[a,d]cyclohepten-5-ylidene)-1-[3-[4-sulfamoylphenyl]-2(E)-propenyl]-piperidine, monohydro-chloride)], the clear liquid obtained result in data set [1] (Comparative Example 1: 10 mg drug and 40 mg SDS in 1 mL water, ultrasonic 1.5 hours) is reported as “could not be obtained”; in data set [1] (Comparative Example 2: 10 mg drug and 100 mg Polysorbate 80 in 1 mL water, ultrasonic 1.5 hours), “could not be obtained”. Also, the “concentration of AP-1067 in clear neutral liquid containing solubilized drug” value in data set [1] (Example 1: micelle formed at pH=13 or above, fixed with 40 mg SDS) was found to be 9100 µg/mL; in data set [1] (Example 2: micelle formed at pH=13 or above, fixed with 100 mg Polysorbate 80) it was 10300 µg/mL. The molecule also showed a solubility in data set [2] of roughly 30 µg/mL.
With `CC1(C)C[C@@H]1C(=O)Nc1ccc(Oc2ccc(NC(=O)[C@H]3CC3(C)C)cn2)cc1` [APC0576, 5-(((S)-2,2-dimethyl-cyclopropancarbonyl)amino)-2-(4-(((S)-2,2-dimethylcyclopropancarbonyl)amino)phenoxy)pyridine], the “clear solubilized solution obtained” value in data set [1] (Comparative Example 3: 10 mg drug and 85 mg cetylpyridinium chloride monohydrate in 1 mL water, no acid, 50° C., ultrasonic 1.5 hours) is “could not be obtained”. For the same molecule, in data set [1] (Example 3: 83 mg cetylpyridinium chloride monohydrate, 1.5 mol/L hydrochloric acid, 50° C., ultrasonic, pH adjusted to nearly neutral), the “concentration of clear liquid containing solubilized APC0576” value was “about 7 mg/mL”. In data set [2], this molecule had a solubility of roughly 1.6 µg/mL (≈ 4.07 µM).
